Experiment [1] concerns A549 cells. It is filed as cell-based, human. Particulars: 40 minutes at 37° C., compared with GBA KO cells.
For experiment [2], the system named is A549 cells. Type of experiment: cell-based, human. The conditions noted are these: WT A549 cells pretreated with nocodazole; EGF-555 100 ng/mL; 40 minutes at 37° C.; compared with GBA KO cells.

The structures appear in SMILES notation.

The text below walks through data of patent US20220257604A1, “COMPOSITIONS AND METHODS FOR […] INFECTIONS BY REGULATING GLUCOSYLCERAMIDES” (priority 2019, published 2022).

For `COC(=O)Nc1nc2ccc(C(=O)c3cccs3)cc2[nH]1` [nocodazole], the “colocalization of influenza with Lamp1 (Manders coefficient)” value in experiment [1] was “not as strongly as in WT cells treated with nocodazole”. For the same compound, the “colocalization of EGF with Lamp1 (Manders coefficient)” value in experiment [2] was “not as severe as seen in WT cells treated with nocodazole”.
